Measurements as given in PubChem BioAssay (NCI).
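Growth conditions: 96-well plates. Treatment: test compound, 48 hours, 5 concentrations. Analysis: linear interpolation between bracketing concentrations; unreached endpoints set to highest concentration. The concentration for 50% growth inhibition is given as GI50. TGI denotes the concentration required for complete inhibition of growth.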

Assays:
Assay in all cases: NCI tumour cell line growth inhibition, 48 h
IGROV1 ovarian = tested on: IGROV1 ovarian
SK-OV-3 ovarian = tested on: SK-OV-3 ovarian
CCRF-CEM leukemia = tested on: CCRF-CEM leukemia
MOLT-4 leukemia = tested on: MOLT-4 leukemia
KM12 colon = tested on: KM12 colon
OVCAR-5 ovarian = tested on: OVCAR-5 ovarian
HCC-2998 colon = tested on: HCC-2998 colon
SN12C renal = tested on: SN12C renal
A549 NSCLC = tested on: A549 NSCLC
SF-295 CNS = tested on: SF-295 CNS

Structure (SMILES)	GI50 (IGROV1 ovarian) [µM]	TGI (IGROV1 ovarian) [µM]	GI50 (SK-OV-3 ovarian) [µM]	TGI (SK-OV-3 ovarian) [µM]	GI50 (CCRF-CEM leukemia) [µM]	TGI (CCRF-CEM leukemia) [µM]	GI50 (MOLT-4 leukemia) [µM]	TGI (MOLT-4 leukemia) [µM]	GI50 (KM12 colon) [µM]	TGI (KM12 colon) [µM]	GI50 (OVCAR-5 ovarian) [µM]	TGI (OVCAR-5 ovarian) [µM]	GI50 (HCC-2998 colon) [µM]	TGI (HCC-2998 colon) [µM]	GI50 (SN12C renal) [µM]	TGI (SN12C renal) [µM]	GI50 (A549 NSCLC) [µM]	TGI (A549 NSCLC) [µM]	GI50 (SF-295 CNS) [µM]	TGI (SF-295 CNS) [µM]
CCCCCCCCCCCC[n+]1ccc(C(N)=O)cc1	1.4	3.5	4.18	15.2	3.61	> 100	3.29	> 100	1.43	3	1.47	4.56	2.71	10.9	3.61	12.6	10.1	26.2	2.8	11.6
OCCNCCNc1c2ccccc2nc2oc3ccccc3c12	7.3	38.3	13.1	40.3	8.97	41.9	4.78	> 100	8.31	> 100	24.2	71.6	4.91	20.9	8.86	57.7	10.3	35.7	6.02	29.6
Clc1ccc2c(c1)-c1ccccc1C1=NCCN12	2.14	5.36	2.68	8.64	1.7	4.08	1.01	3.11	2.56	7.79	2.68	13.4	1.87	3.76	2.41	12.6	1.53	3.77	2.12	6.34
O=C(CCCCCCC(=O)Nc1ccc2c(c1)/C(=C/c1ccc[nH]1)C(=O)N2)NO	1.61	7.9	0.341	3.85	0.0923	> 100	0.289	> 100	0.894	> 23.2	0.755	5.75	1.64	10.9	2.07	26.5	2.87	15.2	1.3	7.51
NCCCCN(Cc1nc2ccccc2[nH]1)[C@H]1CCCc2cccnc21	12.6	> 100	18.6	> 86.5	7.06	56.3	17.5	69.4	15.5	> 100	11.8	> 100	16.9	38.2	14.9	> 100	15.2	44.4	12.8	30.7
COc1ccccc1/C=N/N=C(\N)NO	–	> 100	–	> 100	–	> 100	–	> 100	–	> 100	–	24.3	–	29.2	–	> 100	–	81.1	–	12.3
Cc1cccc2c1C/C(=C1\CCc3c(C)cccc31)C2=O	–	> 100	–	> 100	–	> 100	–	> 100	–	> 100	–	> 100	–	> 100	–	> 100	–	> 100	–	> 100
O=C(N/N=C\c1ccc(N(CCCl)CCCl)cc1Cl)c1cccnc1	1.5	24.5	26.6	> 100	14.5	> 90.6	10.5	42.7	19.4	64.3	0.981	11.3	17.2	68.1	24.1	> 84.4	7.57	73.8	0.565	9.97
Cc1cc(=O)oc2cc(OCc3nc4ccccc4c(=O)[nH]3)ccc12	–	> 100	–	> 100	–	> 100	–	> 100	–	> 100	–	> 100	–	> 100	–	> 100	–	> 100	–	> 100
c1ccc(SC(CCCCOC2CCCCO2)Sc2ccccc2)cc1 (stereo not given)	–	> 100	–	> 100	–	93.1	–	> 100	–	> 100	–	> 100	–	> 100	–	> 100	–	> 100	–	> 100
